Laboratory results published in US12171755B2, “PAPD5 inhibitors and methods of use thereof” (Children's Medical Center Corporation, priority 2017, dated 2024).

Target: T1, PAPD5 (Homo sapiens, UniProt Q8NDF8)
T1 construct: made in house
Test: High-throughput luminescence (KinaseGlo) RNA polyadenylation assay, ATP utilization by recombinant PAPD5
Type: biochemical
Conditions: Table 4 (entries of Table 5), ratio of luminescence with inhibitor to DMSO; for Fold-change determined at compound concentration 33 μM: 33 μM compound; for Fold-change determined at compound concentration 100 μM: 100 μM compound, higher = higher inhibition
Procedure, shortened: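 Recombinant PAPD5 polyadenylates an oligonucleotide substrate using ATP, and remaining ATP is read by KinaseGlo luciferase luminescence. Compound was incubated for 2 h at room temperature, then with luciferase for 10 min.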

T1 sequence (Q8NDF8 68-698 isoform Q8NDF8-5): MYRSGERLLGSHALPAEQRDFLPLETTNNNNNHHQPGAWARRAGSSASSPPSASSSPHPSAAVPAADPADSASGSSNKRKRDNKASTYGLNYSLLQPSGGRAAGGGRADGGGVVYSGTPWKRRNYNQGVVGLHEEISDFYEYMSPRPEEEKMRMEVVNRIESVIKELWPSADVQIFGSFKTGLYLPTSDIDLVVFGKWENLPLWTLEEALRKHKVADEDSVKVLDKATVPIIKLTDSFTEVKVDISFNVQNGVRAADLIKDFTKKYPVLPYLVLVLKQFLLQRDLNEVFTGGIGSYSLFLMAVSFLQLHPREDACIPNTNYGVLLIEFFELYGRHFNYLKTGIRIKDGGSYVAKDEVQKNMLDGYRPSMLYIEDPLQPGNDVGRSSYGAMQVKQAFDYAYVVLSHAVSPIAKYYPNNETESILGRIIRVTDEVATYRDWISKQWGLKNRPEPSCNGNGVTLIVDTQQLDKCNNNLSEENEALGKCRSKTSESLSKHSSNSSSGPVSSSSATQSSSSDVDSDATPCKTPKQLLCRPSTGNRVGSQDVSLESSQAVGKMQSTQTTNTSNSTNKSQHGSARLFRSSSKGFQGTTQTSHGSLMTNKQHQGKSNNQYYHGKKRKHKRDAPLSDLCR

Row | Compound | Fold-change determined at compound concentration 10 μM (10 μM compound) | Fold-change determined at compound concentration 33 μM | Fold-change determined at compound concentration 100 μM
1 | CCSc1nnc(NC(=O)c2cc(=O)c3cc(C)c(C)cc3o2)s1 [Entry 124, N-(5-ethylsulfanyl-1,3,4-thiadiazol-2-yl)-6,7-dimethyl-4-oxochromene-2-carboxamide] | 1.241 | 1.437 | 1.858
2 | CSc1nnc(NC(=O)c2cc(=O)c3cc(C)c(C)cc3o2)s1 [Entry 125, 6,7-dimethyl-N-[5-(methylsulfanyl)-1,3,4-thiadiazol-2-yl]-4-oxo-4H-chromene-2-carboxamide] | – | 1.147 | 1.444
3 | Cc1ccc2c(=O)cc(C(=O)Nc3nnc(CC(C)C)s3)oc2c1C [Entry 126, 7,8-dimethyl-N-[5-(2-methylpropyl)-1,3,4-thiadiazol-2-yl]-4-oxochromene-2-carboxamide] | – | 1.15 | 1.302
4 | CCCc1nnc(NC(=O)c2cc(=O)c3cc(C)c(C)cc3o2)s1 [Entry 127, 6,7-dimethyl-4-oxo-N-(5-propyl-1,3,4-thiadiazol-2-yl)-4H-chromene-2-carboxamide] | – | 1.397 | 1.984
5 | CCOC(=O)Cc1cc(=O)oc2cc(O)cc(O)c12 [Entry 128, Ethyl (5,7-dihydroxy-2-oxo-2H-chromen-4-yl)acetate] | – | 1.314 | 1.957
6 | CCOc1ccc2oc(=O)cc(CN3CCN(C(=O)c4ccc(OC)c(OC)c4)CC3)c2c1 [Entry 129, 4-[[4-(3,4-dimethoxybenzoyl)piperazin-1-yl]methyl]-6-ethoxychromen-2-one] | – | 1.153 | 1.395
7 | Cc1cc(=O)oc2cc(OCC(=O)Nc3ccc(O)c(C(=O)O)c3)ccc12 [Entry 130, 2-hydroxy-5-[[2-(4-methyl-2-oxochromen-7-yl)oxyacetyl]amino]benzoic acid] | – | 1.086 | 1.212
8 | CC(Oc1ccc2c3c(c(=O)oc2c1)CCC3)C(=O)O (stereo not shown) [Entry 131, 2-[(4-Oxo-1,2,3,4-tetrahydrocyclopenta[c]chromen-7-yl)oxy]propanoic acid] | – | 1.195 | 1.653
9 | COc1ccc(-c2coc3c2c(C)cc2oc(=O)c(CC(=O)O)c(C)c23)cc1 [Entry 132, [3-(4-methoxyphenyl)-4,9-dimethyl-7-oxo-7H-furo[2,3-f]chromen-8-yl]acetic acid] | – | 1.303 | 1.774
10 | O=c1oc2cc(OCc3nnn[nH]3)c(Cl)cc2c2c1CCC2 [Entry 133, 8-chloro-7-(1H-tetrazol-5-ylmethoxy)-2,3-dihydrocyclopenta[c]chromen-4(1H)-one] | – | 1.186 | 1.508
11 | Cc1cc(Cl)ccc1NS(=O)(=O)c1cc2[nH]c(=O)c(=O)[nH]c2cc1C [Entry 134, N-(4-chloro-2-methylphenyl)-7-methyl-2,3-dioxo-1,4-dihydroquinoxaline-6-sulfonamide] | – | 1.124 | 1.298
12 | COc1ccc(NS(=O)(=O)c2cc3[nH]c(=O)c(=O)[nH]c3cc2C)cc1Cl [Entry 135, N-(3-chloro-4-methoxyphenyl)-7-methyl-2,3-dioxo-1,4-dihydroquinoxaline-6-sulfonamide] | – | 1.191 | 1.347
13 | COc1ccc(S(=O)(=O)Nc2cc3c(cc2Oc2ccccc2)n(C)c(=O)c(=O)n3C)cc1 [Entry 136, N-(1,4-dimethyl-2,3-dioxo-7-phenoxy-1,2,3,4-tetrahydroquinoxalin-6-yl)-4-methoxybenzenesulfonamide] | – | 1.082 | 1.303
14 | Cc1cc2[nH]c(=O)c(=O)[nH]c2cc1S(=O)(=O)Nc1ccc(OC(F)(F)F)cc1 [Entry 137, 7-methyl-2,3-dioxo-N-[4-(trifluoromethoxy)phenyl]-1,4-dihydroquinoxaline-6-sulfonamide] | – | 1.12 | 1.301
15 | COc1cc(Cl)c(NS(=O)(=O)c2cc3[nH]c(=O)c(=O)[nH]c3cc2C)c(OC)c1 [Entry 138, N-(2-chloro-4,6-dimethoxyphenyl)-7-methyl-2,3-dioxo-1,4-dihydroquinoxaline-6-sulfonamide] | – | 1.161 | 1.317
16 | CCOC(=O)c1cccc(NS(=O)(=O)c2cc3[nH]c(=O)c(=O)[nH]c3cc2C)c1 [Entry 139, ethyl 3-[(7-methyl-2,3-dioxo-1,4-dihydroquinoxalin-6-yl)sulfonylamino]benzoate] | – | 1.272 | 1.549
17 | COc1cccc(C(=O)Nc2nc3nc(-c4ccccc4)cc(=O)n3[nH]2)c1 [Entry 140, 3-methoxy-N-(7-oxo-5-phenyl-1H-[1,2,4]triazolo[1,5-a]pyrimidin-2-yl)benzamide] | – | 1.329 | 1.91
18 | COc1ccc(-c2[nH]nc3nc(-c4cc(OC)c(OC)c(OC)c4)cc(C(=O)O)c23)cc1 [Entry 141, 3-(4-methoxyphenyl)-6-(3,4,5-trimethoxyphenyl)-2H-pyrazolo[3,4-b]pyridine-4-carboxylic acid] | – | 1.308 | 1.882
19 | CCc1cc(=O)n2nc(NCc3ccccc3C)nc2[nH]1 [Entry 143, 5-ethyl-2-[(2-methylbenzyl)amino][1,2,4]triazolo[1,5-a]pyrimidin-7(4H)-one] | – | 1.116 | 1.255
20 | Cc1ccc(-c2ccc3nnc(C)n3n2)cc1S(=O)(=O)N1CCCC1 [Entry 146, 3-methyl-6-(4-methyl-3-pyrrolidin-1-ylsulfonylphenyl)-[1,2,4]triazolo[4,3-b]pyridazine] | – | 1.07 | 1.217
21 | CC1=C2C(=NC(=O)CC2c2ccc(O)cc2)N(c2ccc3nncn3n2)N1 (stereo not shown) [Entry 147, 4-(4-hydroxyphenyl)-3-methyl-1-([1,2,4]triazolo[4,3-b]pyridazin-6-yl)-4,5-dihydro-2H-pyrazolo[3,4-b]pyridin-6-one] | – | 1.118 | 1.243
22 | Cc1nnc2ccc(-n3ncc4c3NC(=O)CC4c3ccc(O)cc3)nn12 (stereo not shown) [Entry 148, 4-(4-hydroxyphenyl)-1-(3-methyl[1,2,4]triazolo[4,3-b]pyridazin-6-yl)-1,4,5,7-tetrahydro-6H-pyrazolo[3,4-b]pyridin-6-one] | – | 1.05 | 1.215
23 | CCOC(=O)c1ccc(NC(=O)CCc2c(C)nc3nc[nH]n3c2=O)cc1 [Entry 149, ethyl 4-[3-(5-methyl-7-oxo-1H-[1,2,4]triazolo[1,5-a]pyrimidin-6-yl)propanoylamino]benzoate] | – | 1.183 | 1.309
24 | Cc1ccccc1C(=O)Nc1nc2nc(-c3ccccc3)cc(=O)n2[nH]1 [Entry 150, 2-methyl-N-(7-oxo-5-phenyl-1H-[1,2,4]triazolo[1,5-a]pyrimidin-2-yl)benzamide] | – | 1.19 | 1.577
25 | Cc1cccc(C(=O)Nc2nc3nc(-c4ccccc4)cc(=O)n3[nH]2)c1 [Entry 151, 3-methyl-N-(7-oxo-5-phenyl-1H-[1,2,4]triazolo[1,5-a]pyrimidin-2-yl)benzamide] | – | 1.312 | 1.799
26 | O=c1c2c([nH]c3nc(CNc4ccc(Br)cc4)nn13)CCC2 [Entry 152, 2-{[(4-bromophenyl)amino]methyl}-4,5,6,7-tetrahydro-8H-cyclopenta[d][1,2,4]triazolo[1,5-a]pyrimidin-8-one] | – | 1.146 | 1.461
27 | O=c1c2c([nH]c3nc(CNc4ccccc4F)nn13)CCC2 [Entry 153, 2-{[(2-fluorophenyl)amino]methyl}-4,5,6,7-tetrahydro-8H-cyclopenta[d][1,2,4]triazolo[1,5-a]pyrimidin-8-one] | – | 1.077 | 1.259
28 | Cc1ccc(Cl)cc1NCc1nc2[nH]c3c(c(=O)n2n1)CCC3 [Entry 154, 2-{[(5-chloro-2-methylphenyl)amino]methyl}-4,5,6,7-tetrahydro-8H-cyclopenta[d][1,2,4]triazolo[1,5-a]pyrimidin-8-one] | – | 1.013 | 1.282
29 | CCCc1cc(=O)n2nc(CNc3ccc(Cl)cc3)nc2[nH]1 [Entry 155, 2-{[(4-chlorophenyl)amino]methyl}-5-propyl[1,2,4]triazolo[1,5-a]pyrimidin-7(4H)-one] | – | 1.097 | 1.372
30 | CCOC(=O)c1c[nH]c2nc(NCc3cccc(Br)c3)nn2c1=O [Entry 156, ethyl 2-[(3-bromophenyl)methylamino]-7-oxo-1H-[1,2,4]triazolo[1,5-a]pyrimidine-6-carboxylate] | – | 1.212 | 1.516
